The text below walks through data of patent US11767295B2, “Isoindole derivative” (TIANJIN HEMAY PHARMACEUTICAL CO., LTD., priority 2018, dated 2023).

What all share (assay type): in vivo
Series [1] deals with Phorbol ester (TPA)-induced ear swelling in mice. Description: Inhibition of phorbol ester (TPA)-induced ear swelling in mice (Biological Example 6). As to conditions: ICR mice, 5 hours after TPA modeling; for Ear Swelling Rate / Inhibitory Rate of Ear Swelling Degree: 2 mg/mouse on right ear; for Ear Swelling Rate: (right−left)/left ear weight; for Inhibitory Rate of Ear Swelling Degree: vs model and blank control; for Ear Swelling Degree: 50 mg/mL in acetone, 40 μL in 2 administrations (2 mg/mouse). The protocol: (§1) 72 male ICR mice were selected and divided into 9 groups. There were 8 mice in each group.
(§2) Before the test, the animals were grouped and the hair around the right ear of the mice was removed.
(§3) 20 μL of respective drug was applied to the animals in each test group (a blank solvent was applied to the model control group). Modeling and induction were carried out after 1 h 10 min. Except for the blank group, 20 μL of TPA at a concentration of 125 μg/mL were applied to the right ears of the animals for induction. After induction for 10 minutes, 20 μL of respective drug were applied to the right ears of the animals in each test group (a blank solvent was applied to the model control group).
After modeling for 5 hours, ear pieces of both sides at the same location of animals in each group were taken with a punch and weighed to calculate the ear swelling degree, ear swelling rate and inhibitory rate.
The ear swelling degree and ear swelling rate after modeling and administration for 5 hours were analyzed and tested with One-Way ANOVA multiple-group test index in SPSS17.0. […] Ear swelling degree (mg)=right ear weight (mg)−left ear weight (mg); Ear swelling rate (%)=(right ear weight−left ear weight)/left ear weight×100%; Inhibitory rate of ear swelling degree (%)=1−(swelling degree of drug administration group−swelling degree of blank control group)/(swelling degree of model control group−swelling degree of blank control group)×100%.

The subject of series [2] is DNCB-induced atopic dermatitis in Balb/c mice. Nature of the series: Efficacy evaluation test of DNCB-induced atopic dermatitis in Balb/c mice model (Biological Example 2). The following applies: BID × 10; for Inhibitory Rate of Ear Swelling / Weight Changes of Animals, Day 10 / Weight Changes of Animals, Day 17 / Weight Changes of Animals, Day 18 / Ear Swelling Degree / IgE Concentration / Inhibitory Rate of IgE Concentration: 1 mg/mouse on ear; for Inhibitory Rate of Ear Swelling / Ear Swelling Degree / IgE Concentration / Inhibitory Rate of IgE Concentration: 18th day; for Inhibitory Rate of Ear Swelling / Inhibitory Rate of IgE Concentration: vs model and blank control; for Weight Changes of Animals, Day 1 / Weight Changes of Animals, Day 10 / Weight Changes of Animals, Day 17 / Weight Changes of Animals, Day 18: Balb/c mice, Mean ± S.D.; for Weight Changes of Animals, Day 1: 1 mg/mouse (50 mg/mL, 20 μL) on ear; for Ear Swelling Degree: right minus left ear piece weight; for IgE Concentration / Inhibitory Rate of IgE Concentration: serum. The protocol:
70 healthy male SPF Balb/c mice, each of which the weight was 19-21 g, were randomly divided into 7 groups by body weight. There were 10 mice in each group.
Before the test, the hair around the right ear of the mouse was removed to reduce the interference in the drug adhesion to the hair.
The start of the test was recorded as Day 1. After the end of the 18th day of the test, blood was taken from each animal to detect the concentration of immunoglobulin (IgE) in the serum (in accordance with the kit instructions). Both ears of the animal were cut off. Ear pieces were cut by an 8 mm punch at the fixed position of the ears and weighed. Differences in the swelling degrees of two ears were calculated.
The IgE concentrations in the serum of different groups on the 18th day were analyzed and compared statistically with One-Way Anova in SPSS 17, respectively. The G test method was used to delete outliers. p<0.05 indicated there were statistical differences. Ear swelling degree (mg)=right ear weight (mg)−left ear weight (mg); Inhibitory rate of ear swelling degree (%)=1−(ear swelling degree of drug administration group−ear swelling degree of blank control group)/(ear swelling degree of model control group−ear swelling degree of blank control group)×100%; Inhibitory rate of IgE (%)=1−(IgE concentration in administration group−IgE concentration in blank control group)/(IgE concentration in model control group−IgE concentration in blank control group)×100%.

In series [3] the test system is ICR mice. Description: Acute toxicity test of single gavage in mice (Biological Example 9). As to conditions: single gavage 2000 mg/Kg; for Death of animals: 3 male and 3 female, until the end of the test. The protocol:
30 healthy ICR mice of SPF grade were randomly divided into 5 groups according to the gender segment, in which 15 mice were male and 15 mice were female. There were 3 mice/gender/group. There were 6 mice in each group, in which 3 mice were male and 3 mice were female.
Single administration by gavage was carried out. The symptoms and responses of all the animals were observed after the administration and were recorded faithfully. The test was observed continuously for 15 days. The symptoms of the animals were recorded. After the test, the tissues and organs of all the animals were weighed, observed and recorded. The specimens were kept.
Body weight, appearance, breath, behavior, reflex and defecation.

Series [4] deals with Phorbol ester (TPA)-induced ear swelling in mice. Nature of the series: Inhibition of phorbol ester (TPA)-induced ear swelling in mice (Biological Example 5). The following applies: ICR mice, 5 hours after TPA modeling. The protocol:
as §1, §2, §3
After modeling for 5 hours, ear pieces of both sides on the same location of animals in each group were taken with a punch and weighed to calculate the ear swelling degree, ear swelling rate and inhibitory rate.
The ear swelling degree and ear swelling rate after modeling and administration for 5 hours were analyzed and tested with One-Way ANOVA multiple-group test index in SPSS17.0. P<0.05 indicated there were statistical differences. Ear swelling degree (mg)=right ear weight (mg)−left ear weight (mg); Ear swelling rate (%)=(right ear weight−left ear weight)/left ear weight×100%; Inhibitory rate of ear swelling degree (%)=1−(ear swelling degree of drug administration group−ear swelling degree of blank control group)/(ear swelling degree of model control group−ear swelling degree of blank control group)×100%.

Where [5] appears, read: female ICR mice, end of the test.
[6] abbreviates: female ICR mice, observed 15 days.
Where [7] appears, read: surviving male ICR mice, end of the experiment.

In the case of `COC(=O)CC(c1ccc(OC)c(OC(C)C)c1)N1C(=O)c2cccc(NC(C)=O)c2C1=O` (stereo not shown) [Example 46, methyl 3-(4-acetamido-1,3-dioxoisoindolin-2-yl)-3-(3-isopropoxy-4-methoxyphenyl)propionate], in series [1], the “Ear Swelling Rate” value is recorded as 44.9 ± 35.5 %, the “Inhibitory Rate of Ear Swelling Degree” value came out at 82.0% and the “Ear Swelling Degree” value is 6.4 ± 5.3 mg. Also, in series [2], the “Inhibitory Rate of Ear Swelling” value is listed as 36.2%; the “Weight Changes of Animals, Day 1” value is listed as 21.6 ± 0.7 g; the “Weight Changes of Animals, Day 10” value was 22.6 ± 0.6 g; the “Weight Changes of Animals, Day 17” value was 23.0 ± 0.7 g. In addition, in series [2], the “Weight Changes of Animals, Day 18” value is reported as 23.1 ± 0.7 g; the “Ear Swelling Degree” value is 18.6 ± 3.9 mg; the “IgE Concentration” value amounted to 4429.8 ± 1713.9 ng/mL; the “Inhibitory Rate of IgE Concentration” value stood at 51.7%.
For the molecule `CCOC(=O)C[C@@H](c1ccc(OC)c(OCC)c1)N1C(=O)c2cccc(NC(C)=O)c2C1=O` [Example 52, ethyl (S)-3-(4-acetamido-1,3-dioxoisoindolin-2-yl)-3-(3-ethoxy-4-methoxyphenyl)propionate], in series [2], the “Inhibitory Rate of Ear Swelling” value is recorded as 60.1%; the “Weight Changes of Animals, Day 1” value was found to be 21.8 ± 0.5 g; the “Weight Changes of Animals, Day 10” value turned out to be 22.6 ± 0.9 g; the “Weight Changes of Animals, Day 17” value stood at 24.3 ± 5.6 g. Further, in series [2], the “Weight Changes of Animals, Day 18” value was 24.2 ± 6.0 g; the “Ear Swelling Degree” value was 12.0 ± 5.4 mg; the “IgE Concentration” value was found to be 4141.5 ± 2315.0 ng/mL; the “Inhibitory Rate of IgE Concentration” value was found to be 55.5%. Further, the Death of animals in series [3] (ICR mice) is 1 male animal died in the second day of the test. It was. In addition, in series [3] (setting [5]), the “Gross anatomy, female animals” value was “until the end of the test. No abnormalities of gross anatomy” and the “Organ indexes, female animals” value is on record as “until the end of the test. No abnormalities of gross anatomy”. Also, the “Clinical observation, female animals” value in series [3] (setting [6]) is “No obvious abnormalities in female animals were observed”. In series [3] (setting [7]), the “Gross anatomy, male animals” value is “observed until the end of the experiment. No abnormalities” and the “Organ indexes, male animals” value is recorded as “observed until the end of the experiment. No abnormalities”.
With `COC(=O)C[C@@H](c1ccc(OC)c(OC(C)C)c1)N1C(=O)c2cccc(NC(C)=O)c2C1=O` [Example 54, methyl (S)-3-(4-acetamido-1,3-dioxoisoindolin-2-yl)-3-(3-isopropoxy-4-methoxyphenyl)propionate], in series [2], the “Inhibitory Rate of Ear Swelling” value was 43.1%; the “Weight Changes of Animals, Day 1” value is reported as 21.6 ± 0.6 g; the “Weight Changes of Animals, Day 10” value came to 22.6 ± 0.8 g; the “Weight Changes of Animals, Day 17” value came out at 23.3 ± 1.2 g. Also, in series [2], the “Weight Changes of Animals, Day 18” value is 23.1 ± 1.2 g; the “Ear Swelling Degree” value came to 16.7 ± 3.0 mg; the “IgE Concentration” value came out at 4873.7 ± 1356.2 ng/mL; the “Inhibitory Rate of IgE Concentration” value came out at 45.9%. The Death of animals result in series [3] (ICR mice) was “activity. No death or abnormality of animals was observed”. Also, the “Clinical observation: appearance, breath, behavior, reflex and defecation” value in series [3] (ICR mice, male and female, observed 15 days) is “The main symptom after administration was reduced”.
Consider `CCCOc1cc(C(CC(=O)OC)N2C(=O)c3cccc(NC(C)=O)c3C2=O)ccc1OC` (stereo not shown) [Example 29, methyl 3-(4-acetamido-1,3-dioxoisoindolin-2-yl)-3-(3-propoxy-4-methoxyphenyl)propionate], for which, in series [1], the “Ear Swelling Rate” value was 46.8 ± 33.9 %, the “Inhibitory Rate of Ear Swelling Degree” value came to 81.5% and the “Ear Swelling Degree” value is on record as 6.5 ± 4.6 mg.
With `CCOc1ccc(C(CC(=O)OC)N2C(=O)c3cccc(NC(C)=O)c3C2=O)cc1OCC` (stereo not shown) [Example 4, methyl 3-(4-acetamido-1,3-dioxoisoindolin-2-yl)-3-(3,4-diethoxyphenyl)propionate], in series [4] (2 mg/mouse on right ear, (right−left)/left ear weight), the “Ear Swelling Rate” value amounted to 34.3 ± 18.2 %. Also, in series [4] (2 mg/mouse on right ear, vs model and blank control), the “Inhibitory Rate of Ear Swelling Degree” value came to 88.8%. For the same molecule, the “Ear Swelling Degree” value in series [4] (50 mg/mL in acetone, 40 μL in 2 administrations (2 mg/mouse)) is 4.8 ± 2.1 mg. For the same molecule, the “Clinical observation, female animals” value in series [3] (setting [6]) is reported as “After administration, no abnormalities of female animals”. Also, the “Clinical observation, male animals” value in series [3] (male ICR mice, observed 15 days) is “The male animals had reduced activity and recovered after”.
